According to patent US20250197359A1, “CANNABINOID RECEPTOR MODULATING COMPOUNDS” (The U.S.A., as Represented by the Secretary, Department of …, priority 2022, published 2025):
Where “and” joins values, the source holds several entries; their conditions need not be identical. Identical values can stand only once.

What was measured:
CB1 = CB1 (UniProt P21554); assay: CB1 radioligand binding assay; set-up: species or system human; details: read-out: Ki (CB1)
Experimental: The target compounds were evaluated in vitro at the human CB1 receptor, stably expressed into Chinese hamster ovary (CHO) cells by utilizing radioligand binding studies.
The binding constant for the synthesized compounds were determined by using radioligand binding assay in mouse brain membranes as well as the target compounds were evaluated in vitro at the human CB1 receptor, stably expressed into Chinese hamster ovary (CHO) cells as well as mouse brain membrane CB1. […]

Brain/CB1 = molecular target: T1, Brain/CB1 (Mus musculus, UniProt P47746); assay: Functional GTPγS binding, Brain/CB1; assay type: biochemical
T1 construct: from tissue; host or cells: mouse brain membranes
Text: Furthermore, the intermediates urea compounds 8a-m were chlorinated with phosphorus oxychloride in the presence of DIPEA base to form imidoyl chloride intermediate and reacted with acetamidine hydrochloride/methyl carbamimidothioate iodide/methyl carbamimidoselenoate iodide and other amines to furnish the target compounds (10a-34b) (Scheme 2, FIG. 2, Scheme 5, FIG. 5). The urea derivatives were converted to the thiourea derivatives 9a-9d by employing sodium thiosulfate. Compound 8a-b, 8e-f were converted to corresponding thiourea by employing sodium thiosulfate dissolved in water dioxane mixture and the reaction was heated to 85° C. for 2 h. […] The binding constant for the synthesized compounds were determined by using radioligand binding assay in mouse brain membranes as well as the target compounds were evaluated in vitro at the human CB1 receptor, stably expressed into Chinese hamster ovary (CHO) cells as well as mouse brain membrane CB1.

T1 sequence (P47746 whole entry): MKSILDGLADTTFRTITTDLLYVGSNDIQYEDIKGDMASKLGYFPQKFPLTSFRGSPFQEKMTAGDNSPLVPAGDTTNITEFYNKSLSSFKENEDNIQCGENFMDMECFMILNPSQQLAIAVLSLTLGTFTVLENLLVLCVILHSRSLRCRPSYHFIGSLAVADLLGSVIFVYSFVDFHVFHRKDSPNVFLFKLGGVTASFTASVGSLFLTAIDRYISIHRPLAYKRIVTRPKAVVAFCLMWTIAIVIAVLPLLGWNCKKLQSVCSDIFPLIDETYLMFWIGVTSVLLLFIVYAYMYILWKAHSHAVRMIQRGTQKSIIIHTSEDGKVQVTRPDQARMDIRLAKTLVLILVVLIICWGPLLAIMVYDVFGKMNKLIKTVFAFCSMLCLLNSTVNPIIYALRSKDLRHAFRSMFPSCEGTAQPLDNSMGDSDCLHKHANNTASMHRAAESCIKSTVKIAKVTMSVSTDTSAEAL

Row | Structure (SMILES) | Ki (CB1) | IC50 (Brain/CB1) [nM]
1 | C/C(N)=N\C(=N\S(=O)(=O)c1cccc(C(F)(F)F)c1)N1CCC(c2ccccc2)C(c2ccc(Cl)cc2)=N1 (centres unmarked) [Compound 10c, (Z)—N—((E)-1-aminoethylidene)-3-(4-chlorophenyl)-4-phenyl-N′-((3-(trifluoromethyl)phenyl)sulfonyl)-5,6-dihydropyridazine-1 (4H)-carboximidamide] | 28.3 nM | 105
2 | C/C(N)=N\C(=N\S(=O)(=O)c1ccc2ccccc2c1)N1CCC(c2ccccc2)C(c2ccc(Cl)cc2)=N1 (centres unmarked) [Compound 10f, (Z)—N—((E)-1-aminoethylidene)-3-(4-chlorophenyl)-N′-(naphthalen-2-ylsulfonyl)-4-phenyl-5,6-dihydropyridazine-1 (4H)-carboximidamide] | 31.4 nM | 132
3 | C/C(N)=N\C(=N\S(=O)(=O)c1ccccc1)N1CCC(c2ccccc2)C(c2ccc(Cl)cc2)=N1 (centres unmarked) [Compound 10g, (Z)—N—((E)-1-aminoethylidene)-3-(4-chlorophenyl)-4-phenyl-N′-(phenylsulfonyl)-5,6-dihydropyridazine-1 (4H)-carboximidamide] | 128 nM and 212 nM | 357
4 | COc1ccc(S(=O)(=O)/N=C(/N=C(\C)N)N2CCC(c3ccccc3)C(c3ccc(Cl)cc3)=N2)cc1 (centres unmarked) [Compound 10h, (Z)—N—((E)-1-aminoethylidene)-3-(4-chlorophenyl)-N′-((4-methoxyphenyl)sulfonyl)-4-phenyl-5,6-dihydropyridazine-1 (4H)-carboximidamide] | 105 nM | 357
5 | C/C(N)=N\C(=N\S(=O)(=O)c1ccc(I)cc1)N1CCC(c2ccccc2)C(c2ccc(Cl)cc2)=N1 (centres unmarked) [Compound 10i, (Z)—N—((E)-1-aminoethylidene)-3-(4-chlorophenyl)-N′-((4-iodophenyl)sulfonyl)-4-phenyl-5,6-dihydropyridazine-1 (4H)-carboximidamide] | 43 nM | 118
6 | C/C(N)=N\C(=N\S(=O)(=O)c1ccc(F)cc1)N1CCC(c2ccccc2)C(c2ccc(Cl)cc2)=N1 (centres unmarked) [Compound 10j, (Z)—N—((E)-1-aminoethylidene)-3-(4-chlorophenyl)-N′-((4-fluorophenyl)sulfonyl)-4-phenyl-5,6-dihydropyridazine-1 (4H)-carboximidamide] | 59.3 nM | 182
7 | C/C(N)=N\C(=N\S(=O)(=O)c1ccccc1C(F)(F)F)N1CCC(c2ccccc2)C(c2ccc(Cl)cc2)=N1 (centres unmarked) [Compound 10k, (Z)—N—((E)-1-aminoethylidene)-3-(4-chlorophenyl)-4-phenyl-N′-((2-(trifluoromethyl)phenyl)sulfonyl)-5,6-dihydropyridazine-1 (4H)-carboximidamide] | 50.6 nM | 125
8 | N/C(=N\C(=N\S(=O)(=O)c1ccc(C(F)(F)F)cc1)N1CCC(c2ccccc2)C(c2ccc(Cl)cc2)=N1)c1ccccc1 (centres unmarked) [Compound 10r, (Z)—N—((Z)-amino (phenyl)methylene)-3-(4-chlorophenyl)-4-phenyl-N′-((4-(trifluoromethyl)phenyl)sulfonyl)-5,6-dihydropyridazine-1 (4H)-carboximidamide] | 33 nM | 197
9 | N/C(=N\C(=N\S(=O)(=O)c1ccc(C(F)(F)F)cc1)N1CCC(c2ccccc2)C(c2ccc(Cl)cc2)=N1)c1ccccc1F (centres unmarked) [Compound 10t, (Z)—N—((Z)-amino (2-fluorophenyl)methylene)-3-(4-chlorophenyl)-4-phenyl-N′-((4-(trifluoromethyl)phenyl)sulfonyl)-5,6-dihydropyridazine-1 (4H)-carboximidamide] | 7.4 nM | 25
10 | N/C(=N\C(=N\S(=O)(=O)c1ccc(C(F)(F)F)cc1)N1CCC(c2ccccc2)C(c2ccc(Cl)cc2)=N1)c1ccc(F)cc1 (centres unmarked) [Compound 10u, (Z)—N—((Z)-amino (4-fluorophenyl)methylene)-3-(4-chlorophenyl)-4-phenyl-N′-((4-(trifluoromethyl)phenyl)sulfonyl)-5,6-dihydropyridazine-1 (4H)-carboximidamide] | 27.3 nM | 107
11 | N/C(=N\C(=N\S(=O)(=O)c1ccc(C(F)(F)F)cc1)N1CCC(c2ccccc2)C(c2ccc(Cl)cc2)=N1)c1ccccn1 (centres unmarked) [Compound 10v, (Z)—N—((Z)-amino (pyridin-2-yl)methylene)-3-(4-chlorophenyl)-4-phenyl-N′-((4-(trifluoromethyl)phenyl)sulfonyl)-5,6-dihydropyridazine-1 (4H)-carboximidamide] | 7 nM | 26
12 | N/C(=N\C(=N\S(=O)(=O)c1ccc(C(F)(F)F)cc1)N1CCC(c2ccccc2)C(c2ccc(Cl)cc2)=N1)c1cccs1 (centres unmarked) [Compound 10w, (Z)—N—((Z)-amino (thiophen-2-yl)methylene)-3-(4-chlorophenyl)-4-phenyl-N′-((4-(trifluoromethyl)phenyl)sulfonyl)-5,6-dihydropyridazine-1 (4H)-carboximidamide] | 140 nM | 234
13 | CC(C)(C)/C(N)=N/C(=N/S(=O)(=O)c1ccc(C(F)(F)F)cc1)N1CCC(c2ccccc2)C(c2ccc(Br)cc2)=N1 (centres unmarked) [Compound 10x, (Z)—N—((Z)-1-amino-2,2-dimethylpropylidene)-3-(4-bromophenyl)-4-phenyl-N′-((4-(trifluoromethyl)phenyl)sulfonyl)-5,6-dihydropyridazine-1 (4H)-carboximidamide] | 20.3 nM | 35
14 | C/C(N)=N/C(=N/S(=O)(=O)c1ccc(C(F)(F)F)cc1)N1CCC(c2ccccc2)C(c2ccc(Br)cc2)=N1 (centres unmarked) [Compound 10y, (Z)—N—((Z)-1-aminoethylidene)-3-(4-bromophenyl)-4-phenyl-N′-((4-(trifluoromethyl)phenyl)sulfonyl)-5,6-dihydropyridazine-1 (4H)-carboximidamide] | 57.2 nM | 92
15 | N/C(=N\C(=N\S(=O)(=O)c1ccc(C(F)(F)F)cc1)N1CCC(c2ccccc2)C(c2ccc(Br)cc2)=N1)c1ccccc1F (centres unmarked) [Compound 10z, (Z)—N—((Z)-amino (2-fluorophenyl)methylene)-3-(4-bromophenyl)-4-phenyl-N′-((4-(trifluoromethyl)phenyl)sulfonyl)-5,6-dihydropyridazine-1 (4H)-carboximidamide] | 8.25 nM | 49
16 | N/C(=N\C(=N\S(=O)(=O)c1ccc(C(F)(F)F)cc1)N1CCC(c2ccccc2)C(c2ccc(Br)cc2)=N1)c1ccc(F)cc1F (centres unmarked) [Compound 10za, (Z)—N—((Z)-amino (2,4-difluorophenyl)methylene)-3-(4-bromophenyl)-4-phenyl-N′-((4-(trifluoromethyl)phenyl)sulfonyl)-5,6-dihydropyridazine-1 (4H)-carboximidamide] | 9.18 nM | 26
17 | CC(C)(C)/C(N)=N/C(=N/S(=O)(=O)c1ccc(C(F)(F)F)cc1)N1CCC(c2ccccc2)C(c2ccc(F)cc2)=N1 (centres unmarked) [Compound 10zb, (Z)—N—((Z)-1-amino-2,2-dimethylpropylidene)-3-(4-fluorophenyl)-4-phenyl-N′-((4-(trifluoromethyl)phenyl)sulfonyl)-5,6-dihydropyridazine-1 (4H)-carboximidamide] | 75.6 nM | 478
18 | N/C(=N\C(=N\S(=O)(=O)c1ccc(C(F)(F)F)cc1)N1CCC(c2ccccc2)C(c2ccc(F)cc2)=N1)c1ccccc1F (centres unmarked) [Compound 10zd, (Z)—N—((Z)-amino (2-fluorophenyl)methylene)-3-(4-fluorophenyl)-4-phenyl-N′-((4-(trifluoromethyl)phenyl)sulfonyl)-5,6-dihydropyridazine-1 (4H)-carboximidamide] | 26 nM | 115
19 | N/C(=N\C(=N\S(=O)(=O)c1ccc(C(F)(F)F)cc1)N1CCC(c2ccccc2)C(c2ccc(F)cc2)=N1)c1ccc(F)cc1F (centres unmarked) [Compound 10ze, (Z)—N—((Z)-amino (2,4-difluorophenyl)methylene)-3-(4-fluorophenyl)-4-phenyl-N′-((4-(trifluoromethyl)phenyl)sulfonyl)-5,6-dihydropyridazine-1 (4H)-carboximidamide] | 58.6 nM | 450
20 | N/C(=N\C(=N\S(=O)(=O)c1ccc(C(F)(F)F)cc1)N1CCC(c2ccccc2)C(c2ccc(F)cc2)=N1)c1ccccn1 (centres unmarked) [Compound 10zf, (Z)—N—((Z)-amino (pyridin-2-yl)methylene)-3-(4-fluorophenyl)-4-phenyl-N′-((4-(trifluoromethyl)phenyl)sulfonyl)-5,6-dihydropyridazine-1 (4H)-carboximidamide] | 41.7 nM | 209
21 | CS/C(N)=N/C(=N/S(=O)(=O)c1ccc(C(F)(F)F)cc1)N1CCC(c2ccccc2)C(c2ccc(F)cc2)=N1 (centres unmarked) [Compound 11j, methyl (E)-N′—((Z)-(3-(4-fluorophenyl)-4-phenyl-5,6-dihydropyridazin-1 (4H)-yl)(((4-(trifluoromethyl)phenyl)sulfonyl)imino)methyl)carbamimidothioate] | 93 nM | > 1000
22 | N#Cc1ccc(S(=O)(=O)/N=C(/N=C2\CCCCN2)N2CCC(c3ccccc3)C(c3ccc(Cl)cc3)=N2)cc1 (centres unmarked) [Compound 13b, (Z)-3-(4-chlorophenyl)-N′-((4-cyanophenyl)sulfonyl)-4-phenyl-N—((E)-piperidin-2-ylidene)-5,6-dihydropyridazine-1 (4H)-carboximidamide] | 19.8 nM | 325
